# Values of other authors as cited in patent publication US20130178535A1, “Acetaminophen Composition” (B. Braun Melsungen AG, priority 2010, published 2013).
smiles,measurement,value
"CC(=O)Nc1ccc(O)cc1 [paracetamol, N-(4-hydroxyphenyl)ethanamide]",pH at which breakdown (hydrolysis) in aqueous solution is minimal,~6
